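Five concentrations, 48 hours, 96-well plates. GI50 marks 50% less growth. TGI: total growth inhibition.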 Where only a bound is given, the exact number is not on record here.

GI50 and TGI data for 8 compounds are collected here from PubChem BioAssay (NCI).

Some test systems named below: MALME-3M melanoma; COLO 205 colon; LOX IMVI melanoma; UO-31 renal; SK-OV-3 ovarian; OVCAR-8 ovarian; CCRF-CEM leukemia; EKVX NSCLC; HOP-62 NSCLC; HL-60(TB) leukemia.
What all share (experiment): inhibition of tumour cell growth, NCI panel, 48 h

Take `Cc1ccc2c(c1)C(=O)c1c-2c(OCCCN(C)C)nc2ccccc12`: the GI50 with MALME-3M melanoma is 1.54 µM; in the assay on COLO 205 colon, 1.16 µM; in the assay on LOX IMVI melanoma, 1.18 µM; with UO-31 renal, 1.13 µM; in the assay on SK-OV-3 ovarian, 4.47 µM; in the assay on OVCAR-8 ovarian it was 2.93 µM. The GI50 with CCRF-CEM leukemia was 1.62 µM; with EKVX NSCLC, 2.42 µM; in the assay with HOP-62 NSCLC it was 2.52 µM; in the assay with HL-60(TB) leukemia, 2.31 µM. Besides, the TGI worked out at 3.29 µM in the assay with MALME-3M melanoma; 3.82 µM in the assay on COLO 205 colon; 2.52 µM in the assay on LOX IMVI melanoma; 8.26 µM in the assay on UO-31 renal; 17.4 µM in the assay on SK-OV-3 ovarian; 17 µM with OVCAR-8 ovarian. In addition, the TGI with CCRF-CEM leukemia was found to be 9.13 µM; with EKVX NSCLC it was 13.5 µM; in the assay with HOP-62 NSCLC it was 16 µM; with HL-60(TB) leukemia, 19.6 µM.
`C=C1C(=O)O[C@H]2[C@H]1CC/C(COC(=O)OC/C1=C/CC[C@@]3(C)O[C@H]3[C@H]3OC(=O)[C@@H](CN(C)C)[C@@H]3CC1)=C\CC[C@@]1(C)O[C@@H]21`: the GI50 in the assay on MALME-3M melanoma is 1.26 µM; in the assay on COLO 205 colon it was 0.487 µM; in the assay with LOX IMVI melanoma it was 1.47 µM; in the assay with UO-31 renal, 1.04 µM; in the assay on SK-OV-3 ovarian it was 12.8 µM; in the assay with OVCAR-8 ovarian, 2.31 µM. The GI50 in the assay on CCRF-CEM leukemia is 0.247 µM; in the assay on EKVX NSCLC, 2.17 µM; in the assay on HOP-62 NSCLC it was 12.2 µM; with HL-60(TB) leukemia, 0.233 µM. Moreover, the TGI in the assay on MALME-3M melanoma came out at 3.12 µM; in the assay on COLO 205 colon, 1.93 µM; with LOX IMVI melanoma it was 2.97 µM; with UO-31 renal, 2.25 µM; with SK-OV-3 ovarian it was 25.4 µM; in the assay with OVCAR-8 ovarian, 10.2 µM. For the same compound, the TGI in the assay with CCRF-CEM leukemia is 0.733 µM; in the assay on EKVX NSCLC, 9.39 µM; in the assay with HOP-62 NSCLC, 26.5 µM; in the assay with HL-60(TB) leukemia it was 0.845 µM.
Regarding `O=CN1N=C(c2cccc(Nc3ccnc4cc(Cl)ccc34)c2)CC1c1ccccc1` (centres undefined), the GI50 with MALME-3M melanoma is 0.373 µM; in the assay on COLO 205 colon it was 0.35 µM; with LOX IMVI melanoma, 0.449 µM; with UO-31 renal, 0.408 µM; with SK-OV-3 ovarian, 0.363 µM; in the assay with OVCAR-8 ovarian, 0.553 µM. Also, the GI50 in the assay on CCRF-CEM leukemia was 0.31 µM; with EKVX NSCLC it was 0.949 µM; in the assay on HOP-62 NSCLC, 0.495 µM; with HL-60(TB) leukemia, 0.213 µM. In addition, the TGI is greater than 100 µM in the assay with MALME-3M melanoma; 2.76 µM in the assay with COLO 205 colon; 4.34 µM in the assay on LOX IMVI melanoma; greater than 100 µM with UO-31 renal; 14.3 µM in the assay on SK-OV-3 ovarian; 7.5 µM in the assay on OVCAR-8 ovarian. Further, the TGI in the assay on CCRF-CEM leukemia is 1.48 µM; in the assay on EKVX NSCLC it was greater than 100 µM; in the assay with HOP-62 NSCLC it was 17.3 µM; in the assay on HL-60(TB) leukemia, 0.487 µM.
As for `O=C(C#Cc1ccccc1)C1=Cc2ccccc2OC1`, the TGI in the assay with MALME-3M melanoma is 13.2 µM; in the assay with COLO 205 colon, 3.93 µM; with LOX IMVI melanoma it was 6.32 µM; with UO-31 renal, 5.34 µM; in the assay with SK-OV-3 ovarian, 30.9 µM; in the assay with OVCAR-8 ovarian, 5.85 µM. Further, the TGI with CCRF-CEM leukemia is 0.528 µM; in the assay with EKVX NSCLC, 6.12 µM; with HOP-62 NSCLC it was 29.3 µM; with HL-60(TB) leukemia, greater than 100 µM.
Take `CC(=O)O[C@H]1C(=O)[C@@]2(C)[C@H]([C@H](OC(=O)c3ccccc3)[C@]3(O)C[C@H](OC(=O)[C@H](OC(=O)OC[C@H]4COC(C)(C)O4)[C@@H](NC(=O)c4ccccc4)c4ccccc4)C(C)=C1C3(C)C)[C@]1(OC(C)=O)CO[C@@H]1C[C@@H]2O`: the GI50 in the assay on MALME-3M melanoma is 0.227 µM; in the assay on COLO 205 colon, 0.0216 µM; in the assay on LOX IMVI melanoma, 0.014 µM; in the assay with UO-31 renal, 0.738 µM; in the assay with SK-OV-3 ovarian, 0.232 µM; in the assay with OVCAR-8 ovarian, 0.0598 µM. For the same compound, the GI50 in the assay on CCRF-CEM leukemia is 0.0265 µM; in the assay on EKVX NSCLC, 0.113 µM; in the assay on HOP-62 NSCLC it was 0.0596 µM; in the assay on HL-60(TB) leukemia, 0.0168 µM. The TGI with MALME-3M melanoma, in the assay on COLO 205 colon, in the assay on LOX IMVI melanoma, with UO-31 renal, with SK-OV-3 ovarian and in the assay on OVCAR-8 ovarian was greater than 33.3 µM in each case. Moreover, the TGI with CCRF-CEM leukemia, in the assay on EKVX NSCLC, with HOP-62 NSCLC and in the assay with HL-60(TB) leukemia was greater than 33.3 µM in each case.
For the compound `C[n+]1c2ccccc2nc2ccccc21`, the GI50 was 1.22 µM with MALME-3M melanoma; 0.375 µM in the assay with COLO 205 colon; 0.819 µM in the assay with LOX IMVI melanoma; 2.39 µM with UO-31 renal; 4.59 µM in the assay on SK-OV-3 ovarian; 2.61 µM in the assay on OVCAR-8 ovarian. The GI50 was 0.683 µM in the assay with CCRF-CEM leukemia, 1.69 µM with EKVX NSCLC, 3.66 µM in the assay on HOP-62 NSCLC and 1.74 µM in the assay with HL-60(TB) leukemia. For the same compound, the TGI in the assay on MALME-3M melanoma was found to be 2.7 µM; with COLO 205 colon it was 1.39 µM; in the assay on LOX IMVI melanoma it was 2.38 µM; in the assay with UO-31 renal, 7.6 µM; in the assay on SK-OV-3 ovarian it was 18.1 µM; in the assay with OVCAR-8 ovarian it was 20.6 µM. In addition, the TGI is greater than 28.7 µM with CCRF-CEM leukemia, 7.96 µM in the assay with EKVX NSCLC, 10.7 µM in the assay on HOP-62 NSCLC and greater than 16.1 µM in the assay with HL-60(TB) leukemia.
For the compound `CCOC1NC(=O)Oc2cc3ccccc3cc21` (centres undefined), the TGI in the assay with MALME-3M melanoma, with COLO 205 colon, in the assay on LOX IMVI melanoma, with UO-31 renal, with SK-OV-3 ovarian and in the assay on OVCAR-8 ovarian was greater than 100 µM each time. The TGI in the assay on CCRF-CEM leukemia, with EKVX NSCLC, in the assay with HOP-62 NSCLC and in the assay with HL-60(TB) leukemia was greater than 100 µM each time.
Regarding `Cc1c(Cl)cccc1NC(=O)/C=C/c1ccccc1`, the TGI in the assay on MALME-3M melanoma, in the assay with COLO 205 colon, with LOX IMVI melanoma, with SK-OV-3 ovarian, in the assay on OVCAR-8 ovarian and with CCRF-CEM leukemia was greater than 100 µM each time. Further, the TGI in the assay with EKVX NSCLC, in the assay with HOP-62 NSCLC and in the assay with HL-60(TB) leukemia was greater than 100 µM throughout.
